According to paper PMC7555330, “In Silico Identification and Biological Evaluation of Antioxidant Food Components Endowed with Human Carbonic Anhydrase IX and XII Inhibition” (Antioxidants, 2020):
Where two headings read alike, the source gives them in different places. One block for each compound: values may come before it.

Tests used:
hCA IX [1] = biological target: T1, hCA IX (Homo sapiens, UniProt Q16790); settings: literature statement; cited from earlier work
T1 construct: made in house

hCA XII [2] = biological target: T2, hCA XII (Homo sapiens, UniProt O43570); settings: literature statement; cited from earlier work
T2 construct: made in house

hCA IX [3] = biological target: T1, hCA IX; experiment: stopped-flow CO2 hydrase assay, hCA IX; assay type: biochemical; settings: mean of three assays, errors ±5–10%
Protocol: (§1) The CA-catalyzed CO2 hydration activity of the compounds reported was assayed by means of the Applied Photophysics stopped-flow instrument. Phenol red was used as a pH indicator at a concentration of 0.2 mM, the instrument was set at working maximum absorbance maximum of 557 nm, the solutions were buffered at pH 7.5 with 20 mM HEPES, and 20 mM Na2SO4 was added for keeping constant the ionic strength, to follow the initial rates of the enzyme-catalyzed CO2 hydration reaction for a period of 10–100 s. The CO2 concentrations for the determination of the kinetic parameters and inhibition constants ranged from 1.7 to 17 mM.
(§2) The uncatalyzed rates were determined in the same experimental manner and subtracted from the total observed values. Stock solutions of the potential inhibitor (0.1 mM) were prepared by using distilled deionized water, and the dilutions with the assay buffer were prepared up to 0.01 nM. The solutions containing the inhibitor and the enzyme were preincubated for 30 min at r.t. prior to performing the assay, in order to form the E−I adduct. The inhibition constants (KIS) were obtained by the nonlinear least squares methods using PRISM 3 and the Cheng−Prusoff equation, as reported earlier, and represent the mean from three different experimental determinations. All CA isoforms herein reported were recombinant and obtained in-house.

hCA XII [4] = biological target: T2, hCA XII; experiment: stopped-flow CO2 hydrase assay, hCA XII; assay type: biochemical; settings: for selectivity index (SI; KI hCA IX/KI hCA XII): hCA XII over hCA IX
Protocol: as §1, §2

hCA I [5] = biological target: T3, hCA I (Homo sapiens, UniProt P00915); experiment: stopped-flow CO2 hydrase assay, hCA I; assay type: biochemical
T3 construct: made in house
Protocol: as §1, §2

MTT cell viability assay = assay type: cell-based; settings: human, Caco-2 cells; Caco-2, 10 µM, 72 h after treatment, percentage of control
Protocol: The human colorectal cancer cells Caco-2 were maintained in Dulbecco’s Modified Eagle Medium (DMEM, Sigma-Aldrich, St. Louis, MO, USA) integrated with 10% of FBS (Fetal Bovine Serum, Sigma-Aldrich, St. Louis, MO, USA) and 1% P/S (Penicillin, Streptomycin, Sigma-Aldrich, St. Louis, MO, USA). Cells’ culture conditions were 5% CO2 incubator at 37 °C. Cell viability was assessed through an MTT assay: 1 × 10^4 cells/well were plated in a 96-well microplate and, two hours later, treated with 6, 12, and 14 (the latter dissolved in DMSO) at 10 µM concentration. After 24, 48, and 72 h, 20 µL of 3-(4,5-dimethylthiazol-2-yl)-2,5 diphenyl tetrazolium (MTT detection reagent, Sigma-Aldrich, St. Louis, MO, USA) was added on the plate at the final concentration of […], and incubated for two more hours. Culture agent was removed and 200 µL of isopropanol (0.04 M HCl) were added to solubilizeformazan crystals. Absorbance was measured at 560 nm by the Victor 3 reader.

hCA II [6] = biological target: T4, hCA II (Homo sapiens, UniProt P00918); experiment: stopped-flow CO2 hydrase assay, hCA II; assay type: biochemical
T4 construct: made in house
Protocol: as §1, §2

hCA II [7] = biological target: T4, hCA II; parameters: method as in PMID 26498393; settings: stopped-flow CO2 hydrase assay; cited from earlier work
hCA I [8] = biological target: T3, hCA I; parameters: method as in PMID 26498393; settings: stopped-flow CO2 hydrase assay; cited from earlier work

T2 sequence (O43570 25-354): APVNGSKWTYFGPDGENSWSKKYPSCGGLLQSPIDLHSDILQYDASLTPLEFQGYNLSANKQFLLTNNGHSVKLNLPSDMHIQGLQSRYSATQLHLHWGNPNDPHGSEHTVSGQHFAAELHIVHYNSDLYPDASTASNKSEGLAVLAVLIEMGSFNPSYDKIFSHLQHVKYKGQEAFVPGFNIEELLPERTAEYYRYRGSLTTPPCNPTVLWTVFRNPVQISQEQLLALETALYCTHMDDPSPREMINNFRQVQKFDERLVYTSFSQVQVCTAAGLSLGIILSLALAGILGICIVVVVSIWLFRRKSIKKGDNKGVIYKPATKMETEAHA
T3 sequence (P00915 whole entry): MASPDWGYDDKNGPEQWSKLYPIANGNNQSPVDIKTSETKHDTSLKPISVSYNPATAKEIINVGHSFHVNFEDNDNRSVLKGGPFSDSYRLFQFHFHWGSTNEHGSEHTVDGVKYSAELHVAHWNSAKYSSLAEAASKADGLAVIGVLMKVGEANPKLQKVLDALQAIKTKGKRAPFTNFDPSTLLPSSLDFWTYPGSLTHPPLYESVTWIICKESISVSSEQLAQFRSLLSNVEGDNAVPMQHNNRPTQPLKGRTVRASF

SMILES: COc1ccccc1O [Guaiacol]
Ki hCA IX (hCA IX [1]): low micromolar range
Ki hCA XII (hCA XII [2]): low micromolar range

Ki (hCA IX [3]): 2.59 µM
selectivity index (SI; KI hCA IX/KI hCA XII) (hCA XII [4]): 27.0 fold
Ki (hCA XII [4]; stopped-flow CO2 hydrase assay, mean of three assays, errors ±5–10%, read-out: KI hCA XII): 0.096 µM
Ki (hCA I [5]; stopped-flow CO2 hydrase assay, mean of three assays, errors ±5–10%, read-out: KI hCA I): > 100 µM
Ki (hCA II [6]; stopped-flow CO2 hydrase assay, mean of three assays, errors ±5–10%, read-out: KI hCA II): > 100 µM
SMILES: COc1cc([C@@H]2Oc3c(OC)cc(/C=C/CO)cc3[C@H]2CO)ccc1O [compound 6, (-)-dehydrodiconiferyl alcohol]
viability at 72 h, 10 µM (MTT cell viability assay): ~70%

SMILES: O=C(/C=C/c1ccc(O)c2c1[C@H](C(=O)O)[C@@H](c1ccc(O)c(O)c1)O2)O[C@H](Cc1ccc(O)c(O)c1)C(=O)O [compound 12, lithospermic acid]
Ki (hCA II [7]): > 100 µM
Ki (hCA I [8]): > 100 µM
viability at 72 h, 10 µM (MTT cell viability assay): ~50%

SMILES: COc1cc(/C=C/CO)cc(OC)c1O[C@@H]1O[C@H](CO)[C@@H](O)[C@H](O)[C@H]1O [compound 14, syringin]
Ki (hCA IX [3]): 0.32 µM
Ki (hCA XII [4]): 0.092 µM
selectivity index (SI; KI hCA IX/KI hCA XII) (hCA XII [4]): 3.5 fold
Ki (hCA I [5]): > 100 µM
viability at 72 h, 10 µM (MTT cell viability assay): ~50%
Ki (hCA II [6]): > 100 µM
